According to ChEMBL document CHEMBL6071133, “Discovery of novel penetrating peptides able to target human leukemia and lymphoma for enhanced PROTAC delivery” (Eur J Med Chem, 2024):
Blank lines part the entries; values can stand above or below the molecule they belong to. The source made the active and inactive calls. The rule behind the calls is not given here. Square brackets hold non-standard residues; d marks the D form. Peptide text beside a SMILES is read from it. Bta = N[C@@H](Cc1csc2ccccc12)C(=O)O

Legend:
[1] = Drug uptake in human K562 cells assessed as fluorescence intensity at 5 umol/L pretreated with endocytosis inhibitor, methyl-beta-cyclodextrin for 0.5 hrs followed by incubation with compound for 2 hrs by FACS analysis; type: ADME, cell-based; conditions: k562, 2 h, 5 µM, dose 5 µmol/L
[2] = Drug uptake in human K562 cells assessed as membrane penetration by measuring increase in fluorescence intensity at 5 umol/L incubated for 2 hrs by flow cytometry relative to C9C; type: ADME, cell-based; conditions: k562, 2 h, 5 µM, dose 5 µmol/L
[3] = Cytotoxicity against human CCRF-CEM cells assessed as cell viability at 0.01 to 100 uM incubated for 48 hrs by MTT assay; type: toxicity, cell-based; conditions: dose 0.01-100 µM, read-out: Activity
[4] = Drug uptake in human K562 cells assessed as fluorescence intensity at 5 umol/L pretreated with endocytosis inhibitor, chlorpromazine for 0.5 hrs followed by incubation with compound for 2 hrs by FACS analysis; type: ADME, cell-based; conditions: k562, 2 h, 5 µM, dose 5 µmol/L
[5] = Interaction with IMA-PROTAC assessed as induction of formation of micelle cluster with uniform and distinct spherical morphology by transmission electron microscopy; type: physicochemical
[6] = Interaction with IMA-PROTAC assessed as induction of assembly formation by transmission electron microscopy; type: physicochemical
[7] = Drug uptake in human K562 cells assessed as perinuclear distribution and colocalization with nucleus at 10 umol/L incubated for 2 hrs by confocal laser microscopy; type: ADME, cell-based; conditions: k562, 2 h, 10 µM, dose 10 µmol/L
[8] = Drug uptake in human K562 cells assessed as fluorescence intensity at 5 umol/L pretreated with endocytosis inhibitor, chloroquine for 0.5 hrs followed by incubation with compound for 2 hrs by FACS analysis; type: ADME, cell-based; conditions: k562, 2 h, 5 µM, dose 5 µmol/L
[9] = Drug uptake in human K562 cells assessed as increase in fluorescence intensity at 1 to 10 uM incubated for 2 hrs by flow cytometry; type: ADME, cell-based; conditions: k562, 2 h, dose 1-10 µM
[10] = Increase in membrane permeation of IMA-PROTAC in human K562 cells assessed as increase in intracellular content of IMA-PROTAC incubated for 3 hrs by HPLC-MRM-MS analysis relative to control; type: functional
K562 [11] = assay: Induction of apoptosis in human K562 cells assessed as early apoptotic cells at PROTAC to compound concentration ratio of 1:5 incubated for 48 hrs in presence of 3 umol/L IMA-PROTAC by AnnexinV-FITC/PI staining based flow cytometry (reference value: 0.03%); type: functional
[12] = Cytotoxicity against human K562 cells assessed as cell viability at 0.01 to 100 uM incubated for 48 hrs by MTT assay; type: toxicity, cell-based; conditions: dose 0.01-100 µM, read-out: Activity
[13] = Drug uptake in human K562 cells assessed as increase in fluorescence intensity at 5 umol/L pretreated with endocytosis inhibitor, nystatin for 0.5 hrs followed by incubation with compound for 2 hrs by FACS analysis; type: ADME, cell-based; conditions: k562, 2 h, 5 µM, dose 5 µmol/L
[14] = Cytotoxicity against human KU812 cells assessed as cell viability at 0.01 to 100 uM incubated for 48 hrs by MTT assay; type: toxicity, cell-based; conditions: dose 0.01-100 µM, read-out: Activity
[15] = Drug uptake in human KU812 cells assessed as membrane permeability by measuring increase in fluorescence intensity at 5 umol/L incubated for 2 hrs by flow cytometry relative to THP-1 cells; type: ADME, cell-based; conditions: ku812, 2 h, 5 µM, dose 5 µmol/L
[16] = Drug uptake in human CCRF-CEM cells assessed as perinuclear distribution and colocalization with nucleus at 10 umol/L incubated for 2 hrs by confocal laser microscopy; type: ADME, cell-based; conditions: 10 µM, dose 10 µmol/L
[17] = Stability of the compound in fetal bovine serum assessed as parent compound remaining measured after 12 hrs by HPLC-MS analysis; type: ADME, cell-free, Bos taurus; conditions: cattle, read-out: Stability
K562 [18] = assay: Induction of cell cycle arrest in human K562 cells assessed as accumulation of cells at G2/M phase at PROTAC to compound concentration ratio of 1:5 incubated for 48 hrs in presence of 3 umol/L IMA-PROTAC by propidium iodide staining based flow cytometry; type: functional
[19] = Drug uptake in human KU812 cells assessed as membrane penetration by measuring increase in fluorescence intensity at 5 umol/L incubated for 2 hrs by flow cytometry relative to C9C; type: ADME, cell-based; conditions: ku812, 2 h, 5 µM, dose 5 µmol/L
K562 [20] = assay: Induction of apoptosis in human K562 cells assessed as late apoptotic cells at PROTAC to compound concentration ratio of 1:5 incubated for 48 hrs in presence of 3 umol/L IMA-PROTAC by AnnexinV-FITC/PI staining based flow cytometry (reference value: 0.01%); type: functional
K562 [21] = assay: Induction of apoptosis in human K562 cells assessed as viable cells at PROTAC to compound concentration ratio of 1:5 incubated for 48 hrs in presence of 3 umol/L IMA-PROTAC by AnnexinV-FITC/PI staining based flow cytometry (reference value: 99.85%); type: functional
[22] = Drug uptake in human KU812 cells assessed as increase in fluorescence intensity at 1 to 10 uM incubated for 2 hrs by flow cytometry; type: ADME, cell-based; conditions: ku812, 2 h, dose 1-10 µM
[23] = Drug uptake in human KU812 cells assessed as increase in fluorescence intensity at 1 to 10 umol/L incubated for 2 hrs by cell imaging based fluorescence microscopic analysis; type: ADME; conditions: ku812, 2 h, dose 1-10 µmol/L
K562 [24] = assay: Increase in membrane permeability of IMA-PROTAC in human K562 cells assessed as potentiation of IMA-PROTAC-induced Bcr-Abl degradation at PROTAC to compound concentration ratio of 1:5 to 1:3 incubated for 48 hrs in presence of 3 umol/L IMA-PROTAC by western blot analysis; type: functional, cell-based
[25] = Drug uptake in human KU812 cells assessed as perinuclear distribution and colocalization with nucleus at 10 umol/L incubated for 2 hrs by confocal laser microscopy; type: ADME, cell-based; conditions: ku812, 2 h, 10 µM, dose 10 µmol/L
[26] = Drug uptake in human K562 cells assessed as increase in fluorescence intensity at 1 to 10 umol/L incubated for 2 hrs by cell imaging based fluorescence microscopic analysis; type: ADME; conditions: k562, 2 h, dose 1-10 µmol/L
[27] = Stability of the compound in fetal bovine serum assessed as parent compound remaining measured after 36 hrs by HPLC-MS analysis; type: ADME, cell-free, Bos taurus; conditions: cattle, read-out: Stability
K562 [28] = assay: Increase in membrane permeability of IMA-PROTAC in human K562 cells assessed as potentiation of IMA-PROTAC-induced inhibition of STAT5 phosphorylation at PROTAC to compound concentration ratio of 1:5 to 1:3 incubated for 48 hrs in presence of 3 umol/L IMA-PROTAC by western blot analysis; type: functional, cell-based
[29] = Drug uptake in human K562 cells assessed as membrane permeability by measuring increase in fluorescence intensity at 5 umol/L incubated for 2 hrs by flow cytometry relative to THP-1 cells; type: ADME, cell-based; conditions: k562, 2 h, 5 µM, dose 5 µmol/L
[30] = Stability of the compound in fetal bovine serum assessed as parent compound remaining measured after 8 hrs by HPLC-MS analysis; type: ADME, cell-free, Bos taurus; conditions: cattle, read-out: Stability
K562 [31] = assay: Potentiation of IMA-PROTAC-induced cytotoxicity against human K562 cells assessed as inhibition of cell growth at compound: IMA-PROTAC concentration ratio of 5:1 incubated for 48 hrs in presence of 3 umo/L IMA-PROTAC by MTT assay; type: functional, cell-based
[32] = Cytotoxicity against human THP-1 cells assessed as cell viability at higher concentrations incubated for 48 hrs by MTT assay; type: toxicity, cell-based; conditions: read-out: Activity
[33] = Drug uptake in human K562 cells assessed as increase in fluorescence intensity at 5 umol/L measured for 5 to 30 mins by flow cytometry; type: ADME, cell-based; conditions: k562, 5 µM, TDE = time-dependent effect, time 5-30 min, dose 5 µmol/L
[34] = Drug uptake in human K562 cells assessed as increase in fluorescence intensity at 5 umol/L measured for 60 to 240 mins by flow cytometry; type: ADME, cell-based; conditions: k562, 5 µM, TDE = time-dependent effect, time 60-240 min, dose 5 µmol/L
K562 [35] = assay: Induction of apoptosis in human K562 cells assessed as necrotic cells at PROTAC to compound concentration ratio of 1:5 incubated for 48 hrs in presence of 3 umol/L IMA-PROTAC by AnnexinV-FITC/PI staining based flow cytometry (reference value: 0.1%); type: functional
[36] = Drug uptake in human CCRF-CEM cells assessed as membrane penetration by measuring increase in fluorescence intensity at 5 umol/L incubated for 2 hrs by flow cytometry relative to C9C; type: ADME, cell-based; conditions: 5 µM, dose 5 µmol/L
[37] = Cytotoxicity against human THP-1 cells assessed as reduction in cell viability at higher concentrations incubated for 48 hrs by MTT assay; type: toxicity, cell-based; conditions: read-out: INH
[38] = Drug uptake in human THP-1 cells assessed as increase in fluorescence intensity at 10 umol/L incubated for 2 hrs by cell imaging based fluorescence microscopic analysis; type: ADME; conditions: thp-1, 2 h, 10 µM, dose 10 µmol/L
[39] = Increase in membrane permeability of IMA-PROTAC in human K562 cells assessed as potentiation of IMA-PROTAC-induced Bcr-Abl degradation at PROTAC to compound concentration ratio of 1:5 incubated for 48 hrs in presence of 3 umol/L IMA-PROTAC by western blot analysis (reference value: 40%); type: functional
K562 [40] = assay: Increase in membrane permeability of IMA-PROTAC in human K562 cells assessed as potentiation of IMA-PROTAC-induced Bcr-Abl degradation at PROTAC to compound concentration ratio of 1:3 incubated for 48 hrs in presence of 3 umol/L IMA-PROTAC by western blot analysis; type: functional, cell-based
K562 [41] = assay: Increase in membrane permeability of IMA-PROTAC in human K562 cells assessed as potentiation of IMA-PROTAC-induced inhibition of STAT5 phosphorylation at PROTAC to compound concentration ratio of 1:5 incubated for 48 hrs in presence of 3 umol/L IMA-PROTAC by western blot analysis; type: functional, cell-based

Drug uptake [1]: Not Active | fold change (FC) [2]: 9.24 | Drug uptake [4]: Not Active | Activity [5]: Not Active | Activity [6]: Not Active | Drug uptake [7]: Active | Drug uptake [8]: Not Active | Drug uptake [9]: Dose-Dependent Effect | Drug uptake [13]: Active | fold change (FC) [15]: 11.7 | Drug uptake [16]: Active | remaining at 12 h [17]: 80% | fold change (FC) [19]: 7.99 | Drug uptake [22]: Dose-Dependent Effect | Drug uptake [23]: Active | Drug uptake [25]: Active | Drug uptake [26]: Active | remaining at 36 h [27]: 75% | fold change (FC) [29]: 33.3 | remaining at 8 h [30]: 100% | Drug uptake [33]: Tde | Drug uptake [34]: Tde
Compound: CC(C)C[C@@H]1NC(=O)[C@H](Cc2c[nH]c3ccccc23)NC(=O)[C@H](Cc2ccc(O)cc2)NC(=O)[C@H](Cc2ccccc2)NC(=O)[C@H](CCCNC(=N)N)NC(=O)[C@H](CCCCN)NC(=O)[C@H](CCC(=O)O)NC(=O)[C@H](CO)NC(=O)[C@H](CCCNC(=N)N)NC1=O (cyclo(EKRFYWLRS))
viability at 48 h, up to 100 µM [3]: > 75% | fold change (FC) [10]: 2.05 | Activity (K562 [11]): 10.71% | viability at 48 h, up to 100 µM [12]: > 75% | viability at 48 h, up to 100 µM [14]: > 75% | Activity (K562 [18]): Active | Activity (K562 [20]): 1.58% | Activity (K562 [21]): 87.64% | Activity (K562 [24]): Active | Activity (K562 [28]): Active | Activity (K562 [31]): inactive | viability at 48 h [32]: > 75% | Activity (K562 [35]): 0.06%

fold change (FC) [36]: 3.1
Compound: CC(C)C[C@@H]1NC(=O)[C@H](Cc2c[nH]c3ccccc23)NC(=O)[C@H](Cc2ccc(O)cc2)NC(=O)[C@H](Cc2ccccc2)NC(=O)CNC(=O)[C@H](CCCCN)NC(=O)[C@H](CC(=O)O)NC(=O)[C@H](CO)NC(=O)[C@H](CCCNC(=N)N)NC1=O (cyclo(DKGFYWLRS))

fold change (FC) [36]: 4.78
Compound: CC(C)C[C@H](NC(=O)[C@H](Cc1csc2ccccc12)NC(=O)[C@H](Cc1ccc(O)cc1)NC(=O)[C@H](Cc1ccccc1)NC(=O)CNC(=O)[C@@H](N)CS)C(=O)N[C@@H](CCCNC(=N)N)C(=O)N[C@@H](CO)C(=O)N[C@@H](CS)C(=O)O (H-CGFY[Bta]LRSC-OH)

Activity [5]: Not Active | Activity [6]: Not Active | remaining at 12 h [17]: 80% | Drug uptake [38]: Active | remaining at 36 h [27]: 35% | remaining at 8 h [30]: 100%
Compound: CC(C)C[C@H](NC(=O)[C@H](Cc1c[nH]c2ccccc12)NC(=O)[C@H](Cc1ccc(O)cc1)NC(=O)[C@H](Cc1ccccc1)NC(=O)CNC(=O)[C@@H](N)CS)C(=O)N[C@@H](CCCNC(=N)N)C(=O)N[C@@H](CO)C(=O)N[C@@H](CS)C(=O)O (H-CGFYWLRSC-OH)
viability at 48 h, up to 100 µM [3]: > 75% | cytotoxicity at 48 h [37]: ~50% | Activity (K562 [11]): 6.26% | viability at 48 h, up to 100 µM [12]: > 75% | viability at 48 h, up to 100 µM [14]: > 75% | Activity (K562 [20]): 7.46% | Activity (K562 [21]): 86.18% | Activity [39]: 60% | Activity (K562 [40]): Active | Activity (K562 [41]): Active | Activity (K562 [35]): 0.09%
